Reference: patent US20080096868A1, “1,4 Substituted Pyrazolopyrimidines as Kinase Inhibitors” (priority 2004, published 2008)

Each compound was assayed against T1, EphB4 kinase (Homo sapiens, UniProt P54760) (assay: Inhibition of EphB4 kinase activity (33P incorporation into poly(Glu,Tyr), filter assay)). Conditions: purified GST-EphB4, 2.0-3.0 μM ATP, poly(Glu,Tyr) 4:1; read-out: IC50 (μmol/l), Inhibition of EphB4 kinase.
T1 construct: made in house; host or cells: Sf9 or Sf21 insect cells (baculovirus)
T1 sequence (P54760 566-987): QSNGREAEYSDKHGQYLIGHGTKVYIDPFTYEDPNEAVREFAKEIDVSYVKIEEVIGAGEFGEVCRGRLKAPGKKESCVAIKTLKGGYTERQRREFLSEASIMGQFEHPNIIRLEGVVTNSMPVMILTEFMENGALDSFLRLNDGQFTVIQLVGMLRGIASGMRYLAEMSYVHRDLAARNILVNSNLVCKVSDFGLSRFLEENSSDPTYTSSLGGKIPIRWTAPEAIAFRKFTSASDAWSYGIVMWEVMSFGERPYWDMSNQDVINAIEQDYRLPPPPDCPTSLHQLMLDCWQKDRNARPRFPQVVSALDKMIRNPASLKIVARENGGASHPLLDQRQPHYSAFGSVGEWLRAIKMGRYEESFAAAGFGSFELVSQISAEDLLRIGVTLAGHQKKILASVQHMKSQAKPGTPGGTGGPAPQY
Format: biochemical
From the text: Generation of Bac-to-Bac™ (Invitrogen Life Technologies, Basel, Switzerland) GST-fusion expression vectors: Entire cytoplasmatic coding regions of the EphB-class are amplified by PCR from cDNA libraries derived from human placenta or brain, respectively. Recombinant baculovirus are generated that express the amino acid region 566-987 of the human EphB4 receptor (SwissProt Database, Accession No. P54760). GST sequence is cloned into pFastBac1® vector (Invitrogen Life Technologies, Basel, Switzerland) and PCR amplified. cDNAs encoding EphB4-receptor domains, respectively are cloned in frame 3′prime to the GST sequence into this modified FastBac1 vector to generate pBac-to-Bac™ donor vectors. Single colonies arising from the transformation are inoculated to give overnight cultures for small scale plasmid preparation. […] By automated sequencing the inserts and approximately 50 bp of the flanking vector sequences are confirmed on both strands.
Production of viruses: Viruses for each of the kinases are made according to the protocol supplied by GIBCO if not stated otherwise. In brief, transfer vectors containing the kinase domains are transfected into the DH10Bac cell line (GIBCO) and plated on selective agar plates. Colonies without insertion of the fusion sequence into the viral genome (carried by the bacteria) are blue. Single white colonies are picked and viral DNA (bac-mid) isolated from the bacteria by standard plasmid purification procedures. Sf9 cells or Sf21 cells are then transfected in 25 cm^2 flasks with the viral DNA using Cellfectin reagent according to the protocol. […]
Protein kinase assays: The activities of protein kinases are assayed in the presence or absence of inhibitors, by measuring the incorporation of ^33P from [γ^33P]ATP into a polymer of glutamic acid and tyrosine (poly(Glu,Tyr)) as a substrate. […] Membranes are counted after drying at ambient temperature, mounting in Packard TopCount96-well frame, and addition of 10 μL/well of Microscint™ (Packard). […]

First: Cc1cccc(C)c1Nc1nc(CCCN(C)C)nc2c1cnn2-c1ccccc1 [Example 27, [6-(3-Dimethylamino-propyl)-1-phenyl-1H-pyrazolo[3,4-d]pyrimidin-4-yl]-(2,6-dimethyl-phenyl)-amine]
Second: COc1ccc(-n2ncc3c(Nc4ccccc4C)ncnc32)cc1 [Example 21, [1-(4-Methoxy-phenyl)-1H-pyrazolo[3,4-d]pyrimidin-4-yl]-o-tolyl-amine]
The IC50 of the first is higher: 0.4 µmol/L for the first, 0.16 µmol/L for the second.

With `COc1ccc(-n2ncc3c(Nc4cc(F)ccc4C)ncnc32)cc1` [Example 23, (5-Fluoro-2-methyl-phenyl)-[1-(4-methoxy-phenyl)-1H-pyrazolo[3,4-d]pyrimidin-4-yl]-amine] the IC50 was 0.5 µmol/L.
